# Source: patent US10730863B2, “Bridged bicyclic compounds as farnesoid X receptor modulators” (BRISTOL-MYERS SQUIBB COMPANY, priority 2017, dated 2020)
# pEC50: −log10 of the molar value.
# Key:
# Fgf15 = experiment: Acute mouse PK/PD: Fgf15 gene expression in ileum; format: in vivo; settings: for Fgf15 (fold change@ 6 h relative to Vehicle): mouse PD
# Procedure: (§1) In Vivo Testing Example: Acute Mouse PK/PD
# (§2) Male, C57BL6/NTac mice, weighing 25-28 g, are purchased from Taconic Labs (Hudson, N.Y.) and maintained on Teklad Global 18% Protein Rodent Diet (Harlan Laboratories). After 1 week acclimation, mice are sorted into groups based upon body weight. Mice are administered a single oral dose of vehicle or experimental compound. Systemic compound exposure is evaluated in plasma derived from blood collected via the submandibular vein at 1 hour post-dose, and at study termination (6 h). At study termination, the animals are euthanized and rapidly dissected. The medial lobe of the liver is divided, with one half being homogenized and analyzed for compound exposure, and the other half saved in RNAlater (Thermo-Fisher Scientific). The ileum is also dissected and preserved in RNAlater. Tissue samples in RNAlater are homogenized with MP Biomedicals' beads. RNA is extracted using the MagMax-96 Total RNA Isolation kit (Thermo-Fisher Scientific) according to the manufacturer's protocol. RNA Concentration is determined with the Nano-Drop 8000 Spectrophotometer (Thermo Fisher). Reverse transcription is done with Invitrogen's SuperScript® VILO cDNA Synthesis Kit according to the manufacturer's protocol. Real time PCR is done with Applied Biosystems' Taqman PCR master mixture according to the manufacturer's protocol. All primers are purchased from Thermo-Fisher Scientific. Mouse genes analyzed include Nr0b2 (which encodes the small heterodimer partner, SHP), Abcb11 (which encodes the bile salt excretion pump, BSEP), Cyp7a1, & Cyp8b1 in liver, and Fgf15, Fabp6 (which encodes ileal bile acid binding protein, I-BABP), Slc51a (which encodes organic solute transporter alpha subunit, OSTA), and Slc51b (which encodes organic solute transporter beta subunit, OSTB) in the ileum. The statistical significant changes in FGF15 gene expression are expressed as fold increase and CYP7A1 expression as a percent reduction relative to vehicle control.
# Cyp7a1 = experiment: Acute mouse PK/PD: Cyp7a1 gene expression in liver; format: in vivo; settings: for Cyp7a1 (fold change@ 6 h relative to Vehicle): mouse PD
# Procedure: as §1, §2
# FXR [1] = molecular target: T1, FXR (Homo sapiens (Human), UniProt Q96RI1); experiment: FXR EC50 (FXR agonist activity reported with each example); format: cell-based
# T1 sequence (Q96RI1 262-486): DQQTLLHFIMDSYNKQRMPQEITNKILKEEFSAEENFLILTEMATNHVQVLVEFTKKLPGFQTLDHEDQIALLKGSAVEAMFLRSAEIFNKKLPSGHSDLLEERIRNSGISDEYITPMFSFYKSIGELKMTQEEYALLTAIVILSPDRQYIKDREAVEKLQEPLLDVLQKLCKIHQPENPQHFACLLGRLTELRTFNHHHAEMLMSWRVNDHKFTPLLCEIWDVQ
# Cypa7a1, Ffg15 = experiment: Mouse in vivo (Cyp7a1 / Fgf15 response); settings: 3 mg/kg, @ 6 h
# FXR [2] = molecular target: T1, FXR; experiment: transient human FXR/Gal4-luciferase reporter assay; format: cell-based; settings: Gal4-hFXR LBD fusion in HEK293 reporter cells; relative to 8 μM GW-4064
# Procedure: The exemplified compounds of the present invention were tested in the transient human FXR/Gal4-luciferase reporter assay, and assay results were described in the EXAMPLES section hereinbefore.
# A Gal4-hFXR fusion construct reporter system was used as the primary assay to characterize compound activity. A construct including 5 copies of the Gal4 promoter response element upstream of a firefly luciferase reporter cDNA was stably expressed in HEK293 cells. This reporter cell line was maintained in Dulbecco's Modified Eagle's medium (DMEM; Gibco) supplemented with 1% penicillin-streptomycin (P/S) solution, 500 μg/ml Zeocin and 10% charcoal/dextran-treated fetal bovine serum (cs-FBS) at 37° C. in a humidified 5% CO2 atmosphere. Another plasmid was constructed in which the human cytomegalovirus promoter in the pcDNA3.1 vector directs the expression of the cDNA encoding a fusion protein comprised of the DNA binding domain from the Gal4 transcription factor fused to the ligand binding domain from human FXR.
# The day prior to transfection, the reporter cells in culture are detached from the plate with trypsin and plated into a T75 flask at a sufficient density to achieve approximately 90% confluence the next morning. The transfection reagents are prepared by separately diluting 25 μg of the pcDNA3.1-Gal4-FXR plasmid into 1.87 mL of Opti-MEM (Thermo-Fisher), and 40 μL of Lipofectamine 2000 (Thermo-Fisher) into 1.87 mL of Opti-MEM, and then adding the diluted DNA solution into the diluted Lipofectamine 2000 solution and incubating at room temperature for 15-20 minutes. The mixture is further diluted with 10 mL of a solution comprised of DMEM, 10% cs-FBS, and 1% P/S immediately prior to transferring to the cells. The maintenance culture media is aspirated from the cells and the final transfection mixture is added before the cells are incubated overnight at 37° C. in a humidified 5% CO2 atmosphere. This protocol can be scaled up, and the transiently transfected cells can be cryopreserved in an assay-ready format.
# For compound testing, 100 nL of the compounds (serial dilutions in DMSO) are dispensed with an Echo acoustic dispenser (Labcyte) into the wells of a Corning/Costar clear bottom 384-well white plate. The transfected cells are harvested, counted, and diluted such that 10-25,000 cells in 25 μL are plated into each well of the 384-well compound assay plate. The compound-treated cells are incubated overnight at 37° C. in a humidified 5% CO2 atmosphere. The next morning 25 μL of Steady-Glo (Promega) are added to each well of the plate, the mixture is incubated for 15 min. with shaking, and luminescence is measured on an Envision (Perkin Elmer) plate reader. Background counts from cells treated with DMSO alone are subtracted from all raw counts, and the corrected values are converted to a percentage of the control response attained with 8 μM GW-4064.
# [3] = 72-week trial, patients with NASH, liver biopsies; cited from earlier work
# [4] = 6-week trial, T2DM patients with NAFLD; cited from earlier work
compound,measurement,setting,value
O=C(O)c1cccc(-c2noc(C34CCC(OCc5c(-c6c(Cl)cccc6Cl)noc5C5CC5)(CC3)CC4)n2)c1 [Example 27],Fgf15 (fold change@ 6 h relative to Vehicle),Fgf15; dose 30 mg/kg,2.8 fold change
same,Cyp7a1 (fold change@ 6 h relative to Vehicle),Cyp7a1; dose 30 mg/kg,0.10 fold change
"O=C(O)c1cc(C(F)(F)F)c2cc(OCC34CCC(OCc5c(-c6c(Cl)cncc6Cl)noc5C5CC5)(CC3)CC4)ccc2n1 [Example 101, 6-((4-((5-cyclopropyl-3-(3,5-dichloropyridin-4-yl)isoxazol-4-yl)methoxy)bicyclo[2.2.2]octan-1-yl)methoxy)-4-(trifluoromethyl)quinoline-2-carboxylic acid]",Fgf15 (fold change@ 6 h relative to Vehicle),Fgf15; dose 3 mg/kg,21 fold change
same,pEC50,FXR [1],8.10
same,Cyp7a1 (fold change@ 6 h relative to Vehicle),Cyp7a1; dose 3 mg/kg,0.06 fold change
"CN1CCN(c2nc(C(=O)O)cc3ccc(C#CC45CCC(OCc6c(-c7c(Cl)cncc7Cl)noc6C6CC6)(CC4)CC5)cc23)CC1 [Example 519, 7-((4-((5-cyclopropyl-3-(3,5-dichloropyridin-4-yl)isoxazol-4-yl)methoxy)bicyclo[2.2.2]octan-1-yl)ethynyl)-1-(4-methylpiperazin-1-yl)isoquinoline-3-carboxylic acid]",Cypa7a1,"Cypa7a1, Ffg15",−92%
same,Ffg15,"Cypa7a1, Ffg15",+1.4 ×
same,pEC50,FXR [1],7.55
O=C(O)CCc1cc(/C=C/C23CCC(OCc4c(-c5c(Cl)cncc5Cl)noc4C4CC4)(CC2)CC3)ccc1OCC(F)F [Example 624],pEC50,FXR [2],6.36
O=C(O)c1ccc(/C=C/C23CCC(OCc4c(-c5c(Cl)cncc5Cl)noc4C4CC4)(CC2)CC3)cc1 [Example 625],pEC50,FXR [2],6.46
O=C(O)c1cc(/C=C/C23CCC(OCc4c(-c5c(Cl)cncc5Cl)noc4C4CC4)(CC2)CC3)ccn1 [Example 626],pEC50,FXR [2],6.06
O=C(O)c1cncc(/C=C/C23CCC(OCc4c(-c5c(Cl)cncc5Cl)noc4C4CC4)(CC2)CC3)c1 [Example 627],pEC50,FXR [2],5.94
O=C(O)c1csc(-c2ccc(/C=C/C34CCC(OCc5c(-c6c(Cl)cncc6Cl)noc5C5CC5)(CC3)CC4)cc2)n1 [Example 628],pEC50,FXR [2],7.14
CN1CCN(c2nc(C(=O)O)cc3ccc(/C=C/C45CCC(OCc6c(-c7c(Cl)cncc7Cl)noc6C6CC6)(CC4)CC5)cc23)CC1 [Example 629],pEC50,FXR [2],7.46
same,"Mouse in vivo Fgf15 (printed Ffg15), fold increase relative to vehicle","Fgf15; mouse, 3 mg/kg single oral dose, @ 6 h, ileum",+7.1 x
same,"Mouse in vivo Cyp7a1 (printed Cypa7a1), change relative to vehicle","Cyp7a1; mouse, 3 mg/kg single oral dose, @ 6 h, liver",−97%
"CC[C@H]1[C@@H](O)[C@@H]2[C@H](CC[C@]3(C)[C@@H]([C@H](C)CCC(=O)O)CC[C@@H]23)[C@@]2(C)CC[C@@H](O)C[C@@H]12 [OCA, obeticholic acid]","hepatic steatosis, lobular inflammation, hepatocyte ballooning, and fibrosis",[3],statistically significantly improved
same,body weight,[4],reduced
same,insulin sensitivity,[4],statistically significantly improved
